# According to US9604996B2 (Bayer Pharma Aktiengesellschaft, priority 2013, dated 2017):
# Molecular target: T1, human adenosine A2b receptor (Homo sapiens, UniProt P29275)
# T1 construct: expressed in transfected cells; host or cells: CHO-K1 (Chinese Hamster Ovary) with CRE-luciferase reporter
# T1 sequence (P29275 1-332): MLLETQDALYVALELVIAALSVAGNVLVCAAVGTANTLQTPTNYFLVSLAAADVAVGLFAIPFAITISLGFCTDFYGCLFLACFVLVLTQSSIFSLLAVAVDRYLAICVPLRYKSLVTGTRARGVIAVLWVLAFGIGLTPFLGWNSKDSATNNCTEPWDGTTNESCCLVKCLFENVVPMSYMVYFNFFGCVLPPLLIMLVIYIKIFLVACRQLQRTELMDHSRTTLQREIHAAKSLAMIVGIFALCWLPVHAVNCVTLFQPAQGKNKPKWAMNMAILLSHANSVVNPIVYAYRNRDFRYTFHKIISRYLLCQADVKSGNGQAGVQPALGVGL
# Assay: Cellular reporter gene (CRE-luciferase) A2b receptor antagonist assay in recombinant CHO-K1 cells stimulated with NECA
# Assay type: cell-based
# Conditions: recombinant CHO-K1 cell line, co-incubation with EC50 concentration of NECA, 3 hours, in some cases means, rounded to two significant digits
# Method: B-1. Cellular In Vitro Tests for Determining A2b Receptor Activity and Adenosine Receptor Selectivity
# The identification of selective antagonists of the human adenosine A2b receptor and the quantification of the efficacy and selectivity of the compounds according to the invention was carried out with the aid of recombinant cell lines for the human adenosine receptors A1, A2a, A2b and A3. These cell lines were originally derived from an ovarepithelial cell of the hamster (Chinese Hamster Ovary, CHO-K1, American Type Culture Collection, Manassas, Va. 20108, USA). In addition to the respective recombinantly expressed adenosine receptor for testing the efficacy at the A1, A2a and A2b receptors, the cell lines contain a reporter gene construct where expression of the firefly (Photinus pyralis) luciferase is under the control of a promoter which can be activated via intracellular signal cascades by stimulation of the receptors with the (not subtype-selective) adenosine receptor agonist NECA (5′-N-ethylcarboxamidoadenosine) [S. J. Hill, J. G. Baker, S. Rhees, Curr. Opin. Pharmacol. 1, 526-532 (2001)].
# In the case of the A2a and A2b cell lines, this is a minimal promoter having a plurality of cAMP-responsive elements (CRE). Stimulation of the Gs coupled A2b or A2a receptors by NECA ultimately leads, via formation of cAMP, to CRE-dependent induction of luciferase expression, which is detected 3 hours after the start of the incubation with NECA using a detection solution in a suitable luminometer. For testing the antagonists, initially, in a pre-experiment, the concentration of NECA which, at the test day in question, results in half-maximum stimulation of luciferase expression (EC50 concentration) is determined By joint incubation of this EC50 concentration of NECA with the substances to be tested, it is possible to determine their antagonistic activity.
row,Compound,IC50 [nM]
1,"Cc1c(C(=O)N2CCC(O)CC2)sc2c1c(=O)n(CC(C)(C)c1ccccc1)c(=O)n2CCC(F)(F)F [Example 50, 6-[(4-Hydroxypiperidin-1-yl)carbonyl]-5-methyl-3-(2-methyl-2-phenylpropyl)-1-(3,3,3-trifluoropropyl)thieno[2,3-d]pyrimidine-2,4(1H,3H)-dione]",150
2,"CCn1c(=O)c2c(C(F)F)c(C(=O)N3CCC(O)(CC)CC3)sc2n(CCC(F)(F)F)c1=O [Example 125, 5-(Difluoromethyl)-3-ethyl-6-[(4-ethyl-4-hydroxypiperidin-1-yl)carbonyl]-1-(3,3,3-trifluoropropyl)thieno[2,3-d]pyrimidine-2,4(1H,3H)-dione]",48
3,"CCCn1c(=O)c2c(C(F)F)c(C(=O)N3CCC(O)CC3)sc2n(CCOC(F)(F)F)c1=O [Example 150, 5-(Difluoromethyl)-6-[(4-hydroxypiperidin-1-yl)carbonyl]-3-propyl-1-[2-(trifluoromethoxy)ethyl]thieno[2,3-d]pyrimidine-2,4(1H,3H)-dione]",9.8
4,"Cc1c(C(=O)N2CCC(O)CC2)sc2c1c(=O)n(CC(C)c1ccccc1)c(=O)n2CCC(F)(F)F (single isomer, unassigned; enantiomer 1) [Example 44, 6-[(4-Hydroxypiperidin-1-yl)carbonyl]-5-methyl-3-(2-phenylpropyl)-1-(3,3,3-trifluoropropyl)thieno[2,3-d]pyrimidine-2,4(1H,3H)-dione (enantiomer 1)]",4.6
5,"COC(Cn1c(=O)c2c(C)c(C(=O)N3CCC(O)CC3)sc2n(CCC(F)(F)F)c1=O)c1ccccc1 (single isomer, unassigned; enantiomer 2) [Example 47, 6-[(4-Hydroxypiperidin-1-yl)carbonyl]-3-(2-methoxy-2-phenylethyl)-5-methyl-1-(3,3,3-trifluoropropyl)thieno[2,3-d]pyrimidine-2,4(1H,3H)-dione (enantiomer 2)]",4.4
6,"Cc1c(C(=O)N2CCC(O)CC2)sc2c1c(=O)n(CCc1ccccc1)c(=O)n2CCOC(F)(F)F [Example 99, 6-[(4-Hydroxypiperidin-1-yl)carbonyl]-5-methyl-3-(2-phenylethyl)-1-[2-(trifluoromethoxy)ethyl]thieno[2,3-d]pyrimidine-2,4(1H,3H)-dione]",10
7,"CCn1c(=O)c2c(C)c(C(=O)N3CCC(O)(C(F)(F)F)CC3)sc2n(CCC(F)(F)F)c1=O [Example 22, 3-Ethyl-6-{[4-hydroxy-4-(trifluoromethyl)piperidin-1-yl]carbonyl}-5-methyl-1-(3,3,3-trifluoropropyl)thieno[2,3-d]pyrimidine-2,4(1H,3H)-dione]",67
8,"CCCn1c(=O)c2c(C)c(C(=O)N3CCC(O)CC3)sc2n(CCOC(F)(F)F)c1=O [Example 60, 6-[(4-Hydroxypiperidin-1-yl)carbonyl]-5-methyl-3-propyl-1-[2-(trifluoromethoxy)ethyl]thieno[2,3-d]pyrimidine-2,4(1H,3H)-dione]",12
9,"CCn1c(=O)c2c(C)c(C(=O)N3CCC(O)(CO)CC3)sc2n(CCOC(F)(F)F)c1=O [Example 75, 3-Ethyl-6-{[4-hydroxy-4-(hydroxymethyl)piperidin-1-yl]carbonyl}-5-methyl-1-[2-(trifluoromethoxy)ethyl]thieno[2,3-d]pyrimidine-2,4(1H,3H)-dione]",33
10,"COCCn1c(=O)c2c(C)c(C(=O)N3CCC(O)CC3)sc2n(CCC(F)(F)F)c1=O [Example 62, 6-[(4-Hydroxypiperidin-1-yl)carbonyl]-3-(2-methoxyethyl)-5-methyl-1-(3,3,3-trifluoropropyl)thieno[2,3-d]pyrimidine-2,4(1H,3H)-dione]",120
11,"CCn1c(=O)c2c(C)c(C(=O)N3CCC(O)CC3)sc2n(CCC(C)C)c1=O [Example 134, 3-Ethyl-6-[(4-hydroxypiperidin-1-yl)carbonyl]-5-methyl-1-(3-methylbutyl)thieno[2,3-d]pyrimidine-2,4(1H,3H)-dione]",360
12,"Cc1c(C(=O)N2CCC(O)CC2)sc2c1c(=O)n(CC(C)(O)c1ccccc1)c(=O)n2CCC(F)(F)F (single isomer, unassigned) [Example 133, 3-(2-Hydroxy-2-phenylpropyl)-6-[(4-hydroxypiperidin-1-yl)carbonyl]-5-methyl-1-(3,3,3-trifluoropropyl)thieno[2,3-d]pyrimidine-2,4(1H,3H)-dione]",850
13,"CCC1C(=O)NCCN1C(=O)c1sc2c(c1C)c(=O)n(CC)c(=O)n2CCC(F)(F)F (racemic) [Example 40, 3-Ethyl-6-[(2-ethyl-3-oxopiperazin-1-yl)carbonyl]-5-methyl-1-(3,3,3-trifluoropropyl)thieno[2,3-d]pyrimidine-2,4(1H,3H)-dione (racemate)]",230
14,"CCn1c(=O)c2c(C)c(C(=O)N3CCC(C)(O)CC3)sc2n(CCOC(F)(F)F)c1=O [Example 111, 3-Ethyl-6-[(4-hydroxy-4-methylpiperidin-1-yl)carbonyl]-5-methyl-1-[2-(trifluoromethoxy)ethyl]thieno[2,3-d]pyrimidine-2,4(1H,3H)-dione]",4
15,"Cc1c(C(=O)N2CCC(O)CC2)sc2c1c(=O)n(CC(O)c1ccccc1)c(=O)n2CCC(F)(F)F (single isomer, unassigned) [Example 101, 3-(2-Hydroxy-2-phenylethyl)-6-[(4-hydroxypiperidin-1-yl)carbonyl]-5-methyl-1-(3,3,3-trifluoropropyl)thieno[2,3-d]pyrimidine-2,4(1H,3H)-dione]",1200
16,CCn1c(=O)c2c(C(F)F)c(C(=O)N3CCC(O)(CO)CC3)sc2n(CCC(F)(F)F)c1=O [Example 126],84
17,"Cc1c(C(=O)N2CCNC(=O)C2)sc2c1c(=O)n(CCc1cccnc1)c(=O)n2CCC=C(F)F [Example 34, 1-(4,4-Difluorobut-3-en-1-yl)-5-methyl-6-[(3-oxopiperazin-1-yl)carbonyl]-3-[2-(pyridin-3-yl)ethyl]thieno[2,3-d]pyrimidine-2,4(1H,3H)-dione]",120
18,"CCn1c(=O)c2c(C(F)F)c(C(=O)N3CCC(C)(O)CC3)sc2n(CCOC(F)(F)F)c1=O [Example 127, 5-(Difluoromethyl)-3-ethyl-6-[(4-hydroxy-4-methylpiperidin-1-yl)carbonyl]-1-[2-(trifluoromethoxy)ethyl]thieno[2,3-d]pyrimidine-2,4(1H,3H)-dione]",9.5
19,"COCCn1c(=O)n(CC(F)(F)c2ccccc2)c(=O)c2c(C)c(C(=O)N3CCC(O)(CO)CC3)sc21 [Example 71, 3-(2,2-Difluoro-2-phenylethyl)-6-{[4-hydroxy-4-(hydroxymethyl)piperidin-1-yl]carbonyl}-1-(2-methoxyethyl)-5-methylthieno[2,3-d]pyrimidine-2,4(1H,3H)-dione]",420
20,"Cc1c(C(=O)N2CCC(O)CC2)sc2c1c(=O)n(CCc1cccc(Cl)c1)c(=O)n2CCC(F)(F)F [Example 10, 3-[2-(3-Chlorophenyl)ethyl]-6-[(4-hydroxypiperidin-1-yl)carbonyl]-5-methyl-1-(3,3,3-trifluoropropyl)thieno[2,3-d]pyrimidine-2,4(1H,3H)-dione]",310
21,"CCn1c(=O)c2c(C)c(C(=O)N3[C@@H]4CC[C@H]3CC(O)C4)sc2n(CCC(F)(F)F)c1=O (stereo partly shown) [Example 23, 3-Ethyl-6-[(3-hydroxy-8-azabicyclo[3.2.1]oct-8-yl)carbonyl]-5-methyl-1-(3,3,3-trifluoropropyl)thieno[2,3-d]pyrimidine-2,4(1H,3H)-dione]",43
22,"O=C(c1sc2c(c1C(F)F)c(=O)n(CCc1ccccc1)c(=O)n2CCC(F)(F)F)N1CCC(O)CC1 [Example 84, 5-(Difluoromethyl)-6-[(4-hydroxypiperidin-1-yl)carbonyl]-3-(2-phenylethyl)-1-(3,3,3-trifluoropropyl)thieno[2,3-d]pyrimidine-2,4(1H,3H)-dione]",19
23,Cc1c(C(=O)N2CCC(O)CC2)sc2c1c(=O)n(CCc1cccnc1)c(=O)n2CCC(F)(F)F [Example 15],32
24,"CCn1c(=O)c2c(C)c(C(=O)N3CCC(O)CC3)sc2n(CC2CC2(F)F)c1=O (racemic) [Example 59, 1-[(2,2-Difluorocyclopropyl)methyl]-3-ethyl-6-[(4-hydroxypiperidin-1-yl)carbonyl]-5-methylthieno[2,3-d]pyrimidine-2,4(1H,3H)-dione (racemate)]",370
25,"CCn1c(=O)c2c(C)c(C(=O)N3CCC(O)CC3)sc2n(CCCC(F)(F)F)c1=O [Example 135, 3-Ethyl-6-[(4-hydroxypiperidin-1-yl)carbonyl]-5-methyl-1-(4,4,4-trifluorobutyl)thieno[2,3-d]pyrimidine-2,4(1H,3H)-dione]",94
